Measurements: ChEMBL document CHEMBL6120977, “Structure-Affinity-Pharmacokinetics Relationships of Novel 18F-Labeled 1,4-Diazepane Derivatives for Orexin 1 Receptor Imaging” (J Med Chem, 2024)
Each block holds one compound with its values, some of them ahead of it.

Experiments:
Orexin receptor type 2 = molecular target: T1, Orexin receptor type 2 (Homo sapiens, UniProt O43614); experiment: Displacement of [125I]Orexin A from recombinant human OX2R expressed in CHO-S cells by radioligand competition binding assay; format: cell-based
T1 sequence (O43614 whole entry): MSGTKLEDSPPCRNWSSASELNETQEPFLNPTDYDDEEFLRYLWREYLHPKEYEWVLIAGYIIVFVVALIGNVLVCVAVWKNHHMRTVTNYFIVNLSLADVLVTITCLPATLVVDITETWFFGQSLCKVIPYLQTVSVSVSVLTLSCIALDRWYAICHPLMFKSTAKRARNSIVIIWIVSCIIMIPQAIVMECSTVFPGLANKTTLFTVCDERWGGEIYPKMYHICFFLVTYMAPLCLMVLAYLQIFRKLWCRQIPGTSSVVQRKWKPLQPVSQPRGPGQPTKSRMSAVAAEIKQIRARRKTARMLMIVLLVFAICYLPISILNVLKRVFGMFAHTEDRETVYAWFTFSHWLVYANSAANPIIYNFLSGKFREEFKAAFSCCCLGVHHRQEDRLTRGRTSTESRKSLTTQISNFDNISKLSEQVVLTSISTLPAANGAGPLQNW

[1] = molecular target: T2, Orexin/Hypocretin receptor type 1 (Homo sapiens, UniProt O43613); experiment: Displacement of [125I]Orexin A from recombinant human OX1R expressed in CHO-S cells by radioligand competition binding assay; format: cell-based
T2 sequence (O43613 whole entry): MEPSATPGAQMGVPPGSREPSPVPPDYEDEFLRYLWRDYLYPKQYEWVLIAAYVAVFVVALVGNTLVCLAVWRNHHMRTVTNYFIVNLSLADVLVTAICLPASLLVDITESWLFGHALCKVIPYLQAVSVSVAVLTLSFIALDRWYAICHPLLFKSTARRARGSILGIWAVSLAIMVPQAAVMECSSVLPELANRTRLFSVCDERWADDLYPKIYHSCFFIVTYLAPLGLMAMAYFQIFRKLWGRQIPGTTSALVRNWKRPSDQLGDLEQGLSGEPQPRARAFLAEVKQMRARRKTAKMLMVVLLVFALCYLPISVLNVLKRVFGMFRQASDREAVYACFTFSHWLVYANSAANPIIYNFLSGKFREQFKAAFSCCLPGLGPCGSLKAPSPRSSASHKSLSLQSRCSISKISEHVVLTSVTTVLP

[2] = Biodistribution in male ddY mouse spleen administered intravenously and measured at 60 mins postinjection by gamma counter analysis; format: ADME, organism-based; conditions: in vivo, iv, 1 h
[3] = Biodistribution in male ddY mouse pancreas administered intravenously and measured at 2 mins postinjection by gamma counter analysis; format: ADME, organism-based; conditions: in vivo, iv
[4] = Biodistribution in male ddY mouse bone administered intravenously and measured at 2 mins postinjection by gamma counter analysis; format: ADME, organism-based, Bone element; conditions: in vivo, iv
[5] = Biodistribution in male ddY mouse lung administered intravenously and measured at 10 mins postinjection by gamma counter analysis; format: ADME, organism-based; conditions: in vivo, iv
[6] = Biodistribution in male ddY mouse spleen administered intravenously and measured at 30 mins postinjection by gamma counter analysis; format: ADME, organism-based; conditions: in vivo, iv, 0.5 h
[7] = Drug accumulation in male CD Sprague-Dawley rat cortex assessed as increase in radioactivity at 40.1 kBq/ml incubated for 1 hrs in presence of BTF by autoradiography analysis; format: ADME, tissue-based
[8] = Biodistribution in male ddY mouse kidney administered intravenously and measured at 60 mins postinjection by gamma counter analysis; format: ADME, organism-based; conditions: in vivo, iv, 1 h
[9] = Drug uptake in male ddY mouse locus ceruleus at 407 kBq, iv measured for 5 to 10 mins by PET/CT imaging analysis; format: ADME, organism-based; conditions: in vivo, time 5-10 min
[10] = Biodistribution in male ddY mouse liver administered intravenously and measured at 2 mins postinjection by gamma counter analysis; format: ADME, organism-based; conditions: in vivo, iv
[11] = Drug accumulation in male CD Sprague-Dawley rat amygdala assessed as increase in radioactivity at 40.1 kBq/ml incubated for 1 hrs in presence of BTF by autoradiography analysis; format: ADME, tissue-based
[12] = Biodistribution in male ddY mouse lung administered intravenously and measured at 60 mins postinjection by gamma counter analysis; format: ADME, organism-based; conditions: in vivo, iv, 1 h
[13] = Biodistribution in male ddY mouse blood administered intravenously and measured at 60 mins postinjection by gamma counter analysis; format: ADME, organism-based; conditions: in vivo, iv, 1 h
[14] = Biodistribution in male ddY mouse blood administered intravenously and measured at 2 mins postinjection by gamma counter analysis; format: ADME, organism-based; conditions: in vivo, iv
[15] = Biodistribution in male ddY mouse intestine administered intravenously and measured at 60 mins postinjection by gamma counter analysis; format: ADME, organism-based; conditions: in vivo, iv, 1 h
[16] = Biodistribution in male ddY mouse intestine administered intravenously and measured at 10 mins postinjection by gamma counter analysis; format: ADME, organism-based; conditions: in vivo, iv
[17] = Biodistribution in male ddY mouse kidney administered intravenously and measured at 10 mins postinjection by gamma counter analysis; format: ADME, organism-based; conditions: in vivo, iv
[18] = Biodistribution in male ddY mouse brain administered intravenously and measured at 2 mins postinjection by gamma counter analysis; format: ADME, organism-based; conditions: in vivo, iv
[19] = Biodistribution in male ddY mouse kidney administered intravenously and measured at 30 mins postinjection by gamma counter analysis; format: ADME, organism-based; conditions: in vivo, iv, 0.5 h
[20] = Biodistribution in male ddY mouse pancreas administered intravenously and measured at 10 mins postinjection by gamma counter analysis; format: ADME, organism-based; conditions: in vivo, iv
[21] = Biodistribution in male ddY mouse intestine administered intravenously and measured at 2 mins postinjection by gamma counter analysis; format: ADME, organism-based; conditions: in vivo, iv
[22] = Biodistribution in male ddY mouse blood administered intravenously and measured at 10 mins postinjection by gamma counter analysis; format: ADME, organism-based; conditions: in vivo, iv
[23] = Biodistribution in male ddY mouse blood administered intravenously and measured at 30 mins postinjection by gamma counter analysis; format: ADME, organism-based; conditions: in vivo, iv, 0.5 h
[24] = Biodistribution in male ddY mouse pancreas administered intravenously and measured at 30 mins postinjection by gamma counter analysis; format: ADME, organism-based; conditions: in vivo, iv, 0.5 h
[25] = Biodistribution in male ddY mouse lung administered intravenously and measured at 2 mins postinjection by gamma counter analysis; format: ADME, organism-based; conditions: in vivo, iv
[26] = Biodistribution in male ddY mouse heart administered intravenously and measured at 10 mins postinjection by gamma counter analysis; format: ADME, organism-based; conditions: in vivo, iv
[27] = Biodistribution in male ddY mouse stomach administered intravenously and measured per organ at 10 mins postinjection by gamma counter analysis; format: ADME, organism-based; conditions: in vivo, iv
[28] = Biodistribution in male ddY mouse heart administered intravenously and measured at 30 mins postinjection by gamma counter analysis; format: ADME, organism-based; conditions: in vivo, iv, 0.5 h
[29] = Biodistribution in male ddY mouse heart administered intravenously and measured at 2 mins postinjection by gamma counter analysis; format: ADME, organism-based; conditions: in vivo, iv
[30] = Drug accumulation in male CD Sprague-Dawley rat hypothalamus assessed as increase in radioactivity at 40.1 kBq/ml incubated for 1 hrs in presence of BTF by autoradiography analysis; format: ADME, tissue-based
[31] = Biodistribution in male ddY mouse brain administered intravenously and measured at 10 mins postinjection by gamma counter analysis; format: ADME, organism-based; conditions: in vivo, iv
[32] = Biodistribution in male ddY mouse intestine administered intravenously and measured at 30 mins postinjection by gamma counter analysis; format: ADME, organism-based; conditions: in vivo, iv, 0.5 h
[33] = Biodistribution in male ddY mouse bone administered intravenously and measured at 10 mins postinjection by gamma counter analysis; format: ADME, organism-based, Bone element; conditions: in vivo, iv
[34] = Biodistribution in male ddY mouse bone administered intravenously and measured at 30 mins postinjection by gamma counter analysis; format: ADME, organism-based, Bone element; conditions: in vivo, iv, 0.5 h
[35] = Biodistribution in male ddY mouse spleen administered intravenously and measured at 10 mins postinjection by gamma counter analysis; format: ADME, organism-based; conditions: in vivo, iv
[36] = Biodistribution in male ddY mouse stomach administered intravenously and measured per organ at 30 mins postinjection by gamma counter analysis; format: ADME, organism-based; conditions: in vivo, iv, 0.5 h
[37] = Biodistribution in male ddY mouse brain administered intravenously and measured at 30 mins postinjection by gamma counter analysis; format: ADME, organism-based; conditions: in vivo, iv, 0.5 h
[38] = Biodistribution in male ddY mouse lung administered intravenously and measured at 30 mins postinjection by gamma counter analysis; format: ADME, organism-based; conditions: in vivo, iv, 0.5 h
[39] = Biodistribution in male ddY mouse stomach administered intravenously and measured per organ at 60 mins postinjection by gamma counter analysis; format: ADME, organism-based; conditions: in vivo, iv, 1 h
[40] = Biodistribution in male ddY mouse bone administered intravenously and measured at 60 mins postinjection by gamma counter analysis; format: ADME, organism-based, Bone element; conditions: in vivo, iv, 1 h
[41] = Biodistribution in male ddY mouse pancreas administered intravenously and measured at 60 mins postinjection by gamma counter analysis; format: ADME, organism-based; conditions: in vivo, iv, 1 h
[42] = Biodistribution in male ddY mouse stomach administered intravenously and measured per organ at 2 mins postinjection by gamma counter analysis; format: ADME, organism-based; conditions: in vivo, iv
[43] = Biodistribution in male ddY mouse liver administered intravenously and measured at 10 mins postinjection by gamma counter analysis; format: ADME, organism-based; conditions: in vivo, iv
[44] = Biodistribution in male ddY mouse liver administered intravenously and measured at 60 mins postinjection by gamma counter analysis; format: ADME, organism-based; conditions: in vivo, iv, 1 h
[45] = Biodistribution in male ddY mouse brain administered intravenously and measured at 60 mins postinjection by gamma counter analysis; format: ADME, organism-based; conditions: in vivo, iv, 1 h
[46] = Drug uptake in male ddY mouse brain at 41 kBq, iv pretreated with BTF for 10 mins followed by compound administration and measured after 10 mins by gamma counter analysis; format: ADME, organism-based; conditions: in vivo
[47] = Biodistribution in male ddY mouse kidney administered intravenously and measured at 2 mins postinjection by gamma counter analysis; format: ADME, organism-based; conditions: in vivo, iv
[48] = Biodistribution in male ddY mouse liver administered intravenously and measured at 30 mins postinjection by gamma counter analysis; format: ADME, organism-based; conditions: in vivo, iv, 0.5 h
[49] = Biodistribution in male ddY mouse heart administered intravenously and measured at 60 mins postinjection by gamma counter analysis; format: ADME, organism-based; conditions: in vivo, iv, 1 h
[50] = Drug uptake in male ddY mouse hypothalamus at 407 kBq, iv measured for 5 to 10 mins by PET/CT imaging analysis; format: ADME, organism-based; conditions: in vivo, time 5-10 min
[51] = Biodistribution in male ddY mouse spleen administered intravenously and measured at 2 mins postinjection by gamma counter analysis; format: ADME, organism-based; conditions: in vivo, iv

IC50 (Orexin receptor type 2): 1410 nM | IC50 [1]: 253 nM
SMILES: COc1ccnc(N2CCC3(CCN(Cc4cn([11CH3])c5ccccc45)C(=O)C3)CC2)n1

Drug uptake [2]: 0.29 % ID/g | Drug uptake [3]: 7.16 % ID/g | Drug uptake [4]: 2.69 % ID/g | Drug uptake [5]: 4.13 % ID/g | Drug uptake [6]: 0.66 % ID/g | Drug uptake [7]: Not_active | Drug uptake [8]: 1.84 % ID/g | Drug uptake [9]: Active | Drug uptake [10]: 16.2 % ID/g | Drug uptake [11]: Not_active | Drug uptake [12]: 1.17 % ID/g | Drug uptake [13]: 0.64 % ID/g | Drug uptake [14]: 6.02 % ID/g | Drug uptake [15]: 34.5 % ID/g | Drug uptake [16]: 15.7 % ID/g | Drug uptake [17]: 4.99 % ID/g | Drug uptake [18]: 2.98 % ID/g | Drug uptake [19]: 3.99 % ID/g | Drug uptake [20]: 3.1 % ID/g | Drug uptake [21]: 4.74 % ID/g | Drug uptake [22]: 3.2 % ID/g | Drug uptake [23]: 1.74 % ID/g | Drug uptake [24]: 0.92 % ID/g | Drug uptake [25]: 8.48 % ID/g | Drug uptake [26]: 3.02 % ID/g | Drug uptake [27]: 2.16 %ID | Drug uptake [28]: 1.51 % ID/g | Drug uptake [29]: 7.48 % ID/g | Drug uptake [30]: Not_active | Drug uptake [31]: 0.82 % ID/g | Drug uptake [32]: 28 % ID/g | Drug uptake [33]: 1.4 % ID/g | Drug uptake [34]: 1.77 % ID/g | Drug uptake [35]: 1.87 % ID/g | Drug uptake [36]: 2.39 %ID | Drug uptake [37]: 0.17 % ID/g | Drug uptake [38]: 2.2 % ID/g | Drug uptake [39]: 1.05 %ID | Drug uptake [40]: 1.87 % ID/g | Drug uptake [41]: 0.61 % ID/g | Drug uptake [42]: 1.4 %ID | Drug uptake [43]: 28.6 % ID/g | Drug uptake [44]: 10.8 % ID/g | Drug uptake [45]: 0.07 % ID/g | Drug uptake [46]: Not_active | Drug uptake [47]: 9.76 % ID/g | Drug uptake [48]: 17 % ID/g | Drug uptake [49]: 0.54 % ID/g | Drug uptake [50]: Active | Drug uptake [51]: 3.26 % ID/g
SMILES: C[C@H]1CN(c2nc3ccccc3s2)CCCN1C(=O)c1cc([18F])ccc1-n1nccn1
